{"source": "paper PMC12657321", "about": "“Pre-clinical evaluation of a potent and effective Pin1-degrading agent in pancreatic cancer” (Molecular Therapy Oncology, 2025)", "key": {"NSG mice": {"test_system": "NSG mice", "experiment": "Toxicity after repeated doses in NSG mice (CBC, observation)", "type": "in vivo, mouse", "protocol": "Figure 6 Toxicity of 164B8 after repeated doses in NSG mice Blood from mice treated as described in Figure 5 was collected and evaluated at the end of the experiment. Peripheral blood from mice was collected and analyzed by standard complete blood count (CBC). (A) Body weight, (B) white blood cell (WBC) counts (×10^9 cells/L), (C) hemoglobin (HGB) concentration (g/dL), and (D) platelet counts (×10^9 cells/L, log scale) in peripheral blood were determined. Data are presented as individual values with mean ± SD. Dotted horizontal lines indicate physiological reference ranges. Statistical comparisons were performed using one-way AVOVA; p values are shown in each panel.\nBioluminescent imaging (BLI) was performed one week post-inoculation. Based on imaging intensity, mice were re-grouped to ensure six animals per group. The PIN1 inhibitor was administered via intraperitoneal injection at doses of 30 mg/kg or 60 mg/kg, once daily, 5 days per week for 2 weeks. Tumor engraftment and growth were monitored by in vivo BLI. D-luciferin potassium salt was dissolved in sterile PBS to a final concentration of 16.6 mg/mL and mice were injected intraperitoneally with D-luciferin solution (0.139 g luciferin/kg body weight), then imaged 10–15 min after luciferin injection using an IVIS Spectrum Imaging System (Lago X) with identical exposure times and binning settings for all mice. Bioluminescence signal intensity was quantified as total flux (photons/s) within a region of interest (ROI) using Aura image software. BLI was performed once every week during the treatment. After 2 weeks of treatment, mice were euthanized 6 h after the final dose. Blood samples were collected via cardiac puncture, and normal peritoneum, intestine, and liver tissues were harvested and snap-frozen on dry ice."}, "Human plasma stability": {"experiment": "Human plasma stability", "type": "in vitro ADME", "conditions": "37°C, up to 6 h, acetonitrile quench, LC-MS/MS", "protocol": "A solution of a Pin1 inhibitor was spiked into blank plasma at 1 μg/mL in various solutions, including an aqueous buffer (1× phosphate-buffered saline; Fisher Scientific, Fair Lawn, NJ), human plasma (Innovative Research Inc., Novi, MI), wild-type mouse plasma (Innovative Research Inc., Novi, MI), plasma form esterase-deficient mice (City of Hope, Duarte, CA), and plasma from Black 6-Cg mice (City of Hope, Duarte, CA).\nThe spiked plasma samples were incubated at 37°C for up to 6 h. At each designated time point, a 20 μL aliquot of the incubation sample was removed and quenched in 100 μL of acetonitrile. At the end of the incubation, the quenched samples were vortexed and centrifuged for 10 min at 4°C and 20,000 × g. The resulting supernatant was reconstituted and analyzed by LC-MS/MS.\nTable S2. Stability half-life of agents reported in Table 1 after incubation at 37 °C in various media. Acq represents aqueous buffer composed of 1x phosphate buffered saline (Fisher Scientific, Fair Lawn, NJ); human represents human plasma (Innovative Research Inc., Novi, MI); mouse wt represents wild type mouse plasma (Innovative Research Inc., Novi, MI); mouse ES1e represents plasma form esterase deficient mice (City of Hope, Duarte, CA); mouse B6-Cg represents plasma from black 6-Cg mice (City of Hope, Duarte, CA). See Figure 1 for the chemical structures of these compounds.\nCompound Acq Human Mouse Mouse ES1e Mouse"}, "[1]": {"conditions": "30 mg/kg i.p. for 2 weeks, blood at end of experiment"}}, "note": "Non-standard residues stand in square brackets, D forms with d. Residues, ends and D or L forms follow the SMILES beside them. *: point of attachment. Trp(6-Cl) = N[C@@H](Cc1c[nH]c2cc(Cl)ccc12)C(=O)O; Pip = O=C(O)[C@@H]1CCCCN1; ClAc = O=C(CCl)*"}
{"smiles": "CNC(=O)[C@H](Cc1c[nH]c2ccccc12)NC(=O)[C@@H]1CCCCN1C(=O)[C@H](Cc1c[nH]c2cc(Cl)ccc12)NC(=O)CCl", "note": "[164B8] (ClAc-[Trp(6-Cl)]-[Pip]-Trp-NHMe)", "values": [{"measurement": "Tolerability of repeated dosing", "setting": "NSG mice; 30 mg/kg i.p. for 2 weeks", "result": "generally well tolerated"}, {"measurement": "Anemia (hemoglobin, CBC)", "setting": "NSG mice; [1]", "result": "mild anemia"}, {"measurement": "Thrombocytopenia (platelet counts, CBC)", "setting": "NSG mice; [1]", "result": "moderate thrombocytopenia"}, {"measurement": "Mice euthanized because of ascites development", "setting": "NSG mice; 60 mg/kg i.p. for 2 weeks, final time point, no obvious carcinomatosis", "result": "two of six mice"}, {"measurement": "half-life at 1 μg/mL", "setting": "Human plasma stability", "result": "~4.5", "unit": "h"}]}
